According to patent publication US7714026B2, “Pharmaceutical composition containing bakuchiol for treating woman osteoporosis” (Sinphar Pharmaceutical Co., Ltd., priority 2004, dated 2010):
Entries after “also recorded” stand apart in the source; their conditions may differ.

System: ovariectomized female Wistar rats (osteoporosis caused by estrogen deficiency)
Assay: Ovariectomized female rat model of osteoporosis caused by estrogen deficiency
Type: in vivo
Conditions: two months; for bone volume of proximal tibia vs OVX group: FIG. 1; for apparent bone density of tibia vs OVX group: FIG. 2; for erosion surface (ES/BS) of proximal tibia (bone resorption) vs OVX group: FIG. 3
Excerpt: The purpose of this example is to show the potency of bakuchiol in treating osteoporosis, wherein ovary of a female rat is removed to stimulate osteoporosis caused by estrogen deficiency.
The female Wistar rats of 16 weeks old (unless specified in the other experiment description) were obtained from the stock reared by the Animal breeding center, National Scientific Council in Taipei. These rats were grouped by weights matched in order to distribute the physiological response variation from rats evenly into each group. These rats were grouping as follows: • Baseline group fed with no drug added food (n=8) • Sham operation group fed with no drug added food (Sham) (n=10) • Ovariectomy operation group fed with no drug added food (OVX) (n=8) • Ovariectomy operation group fed with Drug A (5 mg/kg) added food (OVX+A) (n=9) • Ovariectomy operation group fed with Drug B (15 mg/kg) added food (OVX+B) (n=9)
Ovariectomy (removal of ovaries) operation: Ovariectomy was induced using a protocol similar to that described by Wronski et al (Wronski et al, Endocrinology, 123 (2), 681-686 ([…]))
During the experiments, the rats were housed in hanging grid cages in groups of two at 21° C. with a 12 hours dark cycle. Food (Rat-mouse diet III, adequate in 1% of calcium content and 1.2% of phosphate content, Purina, USA) was administered by paired feeding between the experimental and control groups. Pair-feeding was carried out by calculating the average amount of food intake in the Sham group. So give the same amount of food to the OVX, OVX+A (5 mg/kg), OVX+B (15 mg/kg) group animals the following day. These animals were fed with a period of two months except for the baseline group which were killed on the very day of doing ovariectomy or sham operation. Rats of OVX+A and OVX+B groups were fed with the usual food chuck but added certain amount of compound A and B in it respectively. Water was given ad libitum to all rats.
The test drug was weighted according to dose of 5 mg/kg and 15 mg/kg, and added into the usual food chuck powder and mixed with 10% starch paste. After fully mixed, these chuck powder were made into mass manually and dried by air flow oven. The food with added drug to rats was performed by single blind method.
These labeling and bone histomorphometry assessment were done based on standard procedure in bone research (Lin et al, Calcif. Tissue Int., 67, 373-377 (2000)). Specimen were prestained with Villanueva bone stain, then […] embedded in London resin. Undecalcified sections of 7 μm thick were cut using Jung-K microtome (Leica Ltd, USA) and treated with Villanueva stain for observation under light microscopy. Seven μm thick unstained sections were prepared for fluorescent microscopy and assessed with program Osteomeasure (3.0 version, Atlanta, USA). The bone volume (FIG. 1) and eroded surface parameters (FIG. 3) were obtained according to Lin et al. (Lin et al, Calcif. Tissue Int., 67, 373-377 (2000)). The experiment was performed under specific project licences from the Animal Center and IAACU, National Defense Medical Center, National Defense University, Taipei, Taiwan.
The whole tibia and femur were stripped off attached muscles and ligaments after sacrifice. An apparent bone density measurement was done based on Archimedes floating principle on an electronic balance set with densitometry frame (Danielsen et al., Calcif. Tissue Int., 52, 26-33 (1993)). The weight of bone measured in the air was marked as W-air. The weight of the same bone weighed in water will be marked as W-water. The apparent bone density was calculated as [W-air/(W-air minus W-water)](gm/cm^3) (FIG. 2, Bone apparent density of Tibia).

C=C[C@@](C)(/C=C/c1ccc(O)cc1)CCC=C(C)C [Bakuchiol, bakuchiol]
bone volume of proximal tibia vs OVX group (OVX+A, 5 mg/kg in food): increase in the bone volume
apparent bone density of tibia vs OVX group (OVX+A, 5 mg/kg in food): increase
erosion surface (ES/BS) of proximal tibia (bone resorption) vs OVX group (OVX+A, 5 mg/kg in food, 5 mg/kg): inhibiting the bone resorption; also recorded: inhibition of bone erosion (bone resorption)
bone volume of proximal tibia vs OVX group (OVX+B, 15 mg/kg in food): increase in the bone volume
apparent bone density of tibia vs OVX group (OVX+B, 15 mg/kg in food): increase
erosion surface (ES/BS) of proximal tibia (bone resorption) vs OVX group (OVX+B, 15 mg/kg in food): inhibition of bone erosion (bone resorption)
